This note sets out measurements from patent US6599507B2, “Composition for the treatment of immune deficiencies and methods for its preparation and use” (Ardenia Investments, Ltd., priority 1998, dated 2003).

Entries after “also recorded” stand apart in the source; their conditions may differ.

One series has as its target T1, human AFP (Homo sapiens, UniProt P02771).
T1 construct: from tissue; host or cells: human cord blood
Briefly: Competitive substitution of [3H]arachidonic acid from the AFP binding site (Scatchard). The protocol: To determine N-AAP affinity to human AFP a competitive substitution of [5, 6, 8, 9, 11, 12, 14, 15-^3H] arachidonic from the protein's binding site was used. To tubes containing 0.05 nM AFP in 1 ml 0.1 M bicarbonate buffer and 0.7 nM [3H] arachidonic acid and the increasing amounts of arachidonic acid or N-AAP (5-5000 nM) were added. The tubes were incubated for 2 hr at room temperature. To separate protein-bound and free fractions of [3H] arachidonic acid 0.5 ml of 0.5% suspension of activated carbon was added to each tube and incubated at 4° C. for 30 min. The carbon was sedimented by centrifugation at 3000 g, aliquots were added to 10 ml scintillating mixture and the vials were measured in beta-counter.
The binding parameters of arachidonic acid and N-AAP and the number of binding sites per protein molecule were calculated according to Scatchard (Scatchard O., Ann. N.Y. Acad. Sci. 51., p 660-664, 1949).

The test system of another series is random breed male mice. Briefly: Acute toxicity, single intravenous injection, method of Litchfield and Wilcoxon. Format: in vivo, mouse. The protocol:
The toxicity of N-AAP was studied in random breed male mice (19-24 g). A water solution of N-AAP was injected once slowly in the tail vein of mice in a range of doses 40-70 mg/kg. Each group of mice included 6 animals, at least The assessment of acute toxicity was carried out according to the method of Litchfield et al. (Litchfield J. T., Wilcoxon F., J. Pharmacol. Exptl. Therap., Vol.96, P. 99-103, 1949).

Series [1] concerns antibody-forming cells (AFC) in the spleen of mice immunized with sheep erythrocytes. Nature of the series: Humoral immune response: count of antibody-forming cells (AFC) in the spleen according to Cunningham. Format: in vivo, mouse. The note with it: for relative amount of AFC / total AFC amount: CBA mice, i.v., sheep erythrocytes i.p.; for immunogenic / immunostimulating activity, effect on humoral immune response (in words): mice immunized with sheep erythrocytes. The protocol:
The influence of AFPIN-AAP complexes as well as their basic components on humoral immune response was estimated by counting the quantity of antibody-forming cells (AFC) in the spleen.
AFP was administered intravenously to 10 mouse males of CBA line (weight 18-22 g) in a dose of 0.009 mg per capita. Simultaneously 5% sheep erythrocytes suspension was injected peritoneally (0.2 ml per capita) to both control and experimental animals. The control animals were also injected with the equal volume of NaCl isotonic solution intravenously.
The effect of AFP on humoral immune response was analyzed by counting the quantity of AFC in the spleen according to Cunningham (Cunningham A. J., Nature, v.207, p. 1106-1107, 1965) (per 10^6 spleen cells and per spleen).
N-AAP was administered intravenously to 10 mouse males of CBA line (weight 18-22 g) in a dose of 0.09 mg per capita Simultaneously 5% sheep erythrocytes suspension was injected peritoneally (0.2 ml per capita). Control series were injected with 0.15 ml NaCl isotonic solution intravenously. The effect of N-AAP on humoral immune response was analysed by counting the quantity of AFC in the spleen according to Cunningham (per 10^6 spleen cells and per spleen).
0.15 ml AFP/N-AAP complex was administered intravenously to 10 mouse males of CBA line (weight 18-22 g) in a dose of 0.009 mg AFP and 0.09 mg N-AAP per capita. Simultaneously 5% sheep erythrocytes suspension was injected peritoneally (0.2 ml per capita). Control series were intravenously injected with equal volumes of NaCl isotonic solution. The effect of the AFP/N-AAP complex on humoral immune response was analyzed by counting the quantity of AFC in the spleen according to Cunningham (per 10^6 spleen cells and per spleen).
0.15 ml AFP/N-AAP complex was administered intravenously to 10 mouse males of CBA line (weight 18-22 g) in a dose of 0.009 mg AFP and 0.045 mg N-AAP per capita. Simultaneously 5% sheep erythrocytes suspension was injected peritoneally (0.2 ml per capita). Control series were intravenously injected with equal volumes of NaCl isotonic solution. The effect of the AFP/N-AAP complex on humoral immune response was analyzed by counting the quantity of AFC in the spleen according to Cunningham (per 10^6 spleen cells and per spleen).
0.15 ml AFP/N-AAP complex was administered intravenously to 10 mouse males of CBA line (weight 18-22 g) in a dose of 0.009 mg AFP and 0.135 mg N-AAP per capita. Simultaneously 5% sheep erythrocytes suspension was injected peritoneally (0.2 ml per capita) Control series were intravenously injected with equal volumes of NaCl isotonic solution. The effect of the AFP/N-AAP complex on humoral immune response was analyzed by counting the quantity of AFC in the spleen according to Cunningham (per 10^6 spleen cells and per spleen).
In order to determine the effect of the inventive complex, 0.15 ml AFP/N-AAP complex was administered intravenously to 10 mouse males of CBA line (weight 18-22 g) in the dose of 0.009 mg rat AFP and 0.09 mg N-AAP per capita. Simultaneously 5% sheep erythrocytes suspension was injected peritoneally (0.2 ml per capita). Control series were injected intravenously with equal volumes of isotonic NaCl solution. The effect of rat AFP/N-AAP complex on humoral immune response was analyzed by counting the quantity of AFC in the spleen according to Cunningham (per 10^6 spleen cells and per spleen).

The mark [2] stands for this setting: mice, single i.v. injection in tail vein.

Turning to `CCCCC/C=C\C/C=C\C/C=C\C/C=C\CCCC(=O)NCCOP(=O)(O)O` [N-AAP, N-arachidonoyl aminoethylphosphate], at human AFP, the affinity, expressed as Ki, was 333 nM. For the same molecule, in the series with random breed male mice (setting [2]), the DL10 is 46 mg/kg; and the DL90 is listed as 87 mg/kg. In the series with random breed male mice (mice, single i.v. injection in tail vein, p = 0.05), the DL50 was 63 (54.8 ÷ 72.5) mg/kg at p = 0.05;. This molecule also returned a therapeutic index with random breed male mice (mouse, in vivo) of 10. Besides, in series [1] (5-th day after injection), the “relative amount of AFC in comparison with control (in words)” value is “not significantly changed”, the “relative amount of AFC” value was 342.2±28.5 per 10^6 cells and the “total AFC amount” value was 36.0±8.7 10^3 per spleen. The “immunogenic / immunostimulating activity, effect on humoral immune response (in words)” value (“immunogenic / immunostimulating activity” for short) in series [1] was “does not exhibit immunogenic activity; also recorded: no immunogenic activity”.

Regarding `CCCCC/C=C\C/C=C\C/C=C\C/C=C\CCCC(=O)O` [arachidonic acid, reference compound], the “n (number of binding sites per protein molecule)” value on human AFP (three independent determinations, Scatchard) was greater than 1.2.

B1: AFP: Alpha-fetoprotein isolated from human cord blood, more than 99% purity (protein, UniProt P02771 19-609, looked up)
Alpha-fetoprotein: RTLHRNEYGIASILDSYQCTAEISLADLATIFFAQFVQEATYKEVSKMVKDALTAIEKPTGDEQSSGCLENQLPAFLEELCHEKEILEKYGHSDCCSQSEEGRHNCFLAHKKPTPASIPLFQVPEPVTSCEAYEEDRETFMNKFIYEIARRHPFLYAPTILLWAARYDKIIPSCCKAENAVECFQTKAATVTKELRESSLLNQHACAVMKNFGTRTFQAITVTKLSQKFTKVNFTEIQKLVLDVAHVHEHCCRGDVLDCLQDGEKIMSYICSQQDTLSNKITECCKLTTLERGQCIIHAENDEKPEGLSPNLNRFLGDRDFNQFSSGEKNIFLASFVHEYSRRHPQLAVSVILRVAKGYQELLEKCFQTENPLECQDKGEEELQKYIQESQALAKRSCGLFQKLGEYYLQNAFLVAYTKKAPQLTSSELMAITRKMAATAATCCQLSEDKLLACGEGAADIIIGHLCIRHEMTPVNPGVGQCCTSSYANRRPCFSSLVVDETYVPPAFSDDKFIFHKDLCQAQGVALQTMKQEFLINLVKQKPQITEEQLEAVIADFSGLLEKCCQGQEQEVCFAEEGQKLISKTRAALGV
Regarding B1, in series [1] (5-th day after injection), the “total AFC amount in comparison with control (in words)” value is given as “not significantly changed”, the “relative amount of AFC” value worked out at 255.5±13 per 10^6 cells and the “total AFC amount” value is listed as 23.6±1.5 10^3 per spleen. For the same molecule, the “lower relative amount of AFC in comparison with control group” value in series [1] (5-th day after injection, AFP 0.009 mg per capita i.v.) turned out to be 30%. Moreover, the “immunogenic / immunostimulating activity” value in series [1] was “reduces or does not significantly effect the immunogenic characteristics of sheep erythrocytes”.

B2: Rat AFP: Rat alpha-fetoprotein isolated from neonatal rat serum by immunoaffinity (protein, UniProt P02773 25-611, looked up)
Alpha-fetoprotein: RVLHTNEFGIESTLDSSQCPTEKNMFNVATIVVAQFVQDATKAEVNKMSSDALAAMKENTGDGCLENQLSVFLDEICHETELSNKYGFSGCCNQSGVERHQCLLARKKTAPDSVPPFHFPETAESCPAYEENRAMSINTFIYDVSKRNPFLYAPTILYLAAQYDKAVPACCKADNMEECFQTKRASMAKELREGSMLNEHVCAVIRKFGSRNLQAVLIIKLSQKFPKANITEIRKLALDVAHIHEQCCHGNAMECLQDGESVMTHMCSQQEILSSKTAECCKLPTIELGYCIIHAENGDKPEGLTLNPSEFLGDRNFAQFSSEEKLLFMASFLHEYSRNHPNLPVSVILKTAKSYQEILEKCSQSETPSKCQDNMEEELQKHIQESQALAKQSCNLYQKLGPYYLQNLFLIGYTRKAPQLTSAELIDLTGKMVSIASTCCQLSEEKRSACGEGLADIYIGHLCLRHEANPVNSGINHCCSSSYSNRRLCITSFLRDETYVPPPFSEDKFIFHKDLCQAQGRALQTMKQELLINLVKQKPEMTEEQHAAVTADFSGLLEKCCKDQDQEACFAKEGPKLISKTREALGV
Consider B2, for which, in series [1] (5-th day after injection), the “relative amount of AFC” value was 428.1±11.5 per 10^6 cells and the “total AFC amount” value is given as 60.3±13.5 10^3 per spleen. Further, the “immunogenic / immunostimulating activity” value in series [1] is “no immunogenic activity”.
